Legend:
[1] = target: T1, HIV-1 IN mutant G140S/Q148H (Human immunodeficiency virus type 1 group M subtype B, UniProt P12497, G1287S/Q1295H); experiment: Gel-based IN strand transfer assay, G140S/Q148H mutant; format: biochemical
T1 construct: RAL-resistant HIV-1 mutant integrases; made in house; host or cells: E. coli RosettaII
Protocol: IN reactions were carried out by adding drugs or an equivalent volume of 100% DMSO (dimethyl sulfoxide, used as the drug solvent) to a mixture of 20 nM duplex DNA (21T/21B) and 400 nM IN in 50 mM MOPS pH 7.2, 7.5 mM MgCl2, and 14 mM 2-mercaptoethanol. Reactions were performed at 37 °C for 2 h and quenched by addition of an equal volume of loading buffer [formamide containing 1% SDS (sodium dodecyl sulfate), 0.25% bromophenol blue, and xylene cyanol]. Reaction products were separated in 16% polyacrylamide denaturing sequencing gels. Dried gels were visualized using a Typhoon 8600 (GE Healthcare, Piscataway, NJ, USA). Densitometric analyses were performed using the ImageQuant 5.1 software from GE Healthcare. Data analyses (linear regression, IC50 determination, and standard deviation) were performed using Prism 6.05 software from GraphPad.

full-length IN = target: T2, full-length IN (Human immunodeficiency virus type 1 group M subtype B, UniProt P12497); experiment: Disintegration reaction, full-length IN; format: biochemical, HIV-1; details: branched substrate
T2 construct: using full-length IN (1–288), the isolated catalytic core domain (CCD) (51–212); made in house; host or cells: E. coli RosettaII
Description: Conventional IN strand transfer inhibitors bind at the interface created by the protein, viral DNA, and two magnesium cations in the catalytic site of the enzyme. Because stilbene disulfonic acid derivatives inhibit both 3′-P and ST with a similar efficiency, they may act outside the IN catalytic site. To determine if IN domains other than the catalytic core domain (CCD) are involved in the inhibitory activity of NSC34931, we tested this compound on disintegration, the only IN-mediated reaction that can be catalyzed by the isolated CCD. Disintegration is equivalent to a reverse-ST reaction (Figure 3A). Using a branched substrate, the WT enzyme as well as the isolated CCD catalyzed disintegration with similar efficiency (Figure 3B). NSC34931 inhibited disintegration catalyzed by the full-length IN at concentrations above 4.1 µM (Figure 3B,C). However, NSC34931 was unable to inhibit disintegration catalyzed by the CCD at concentrations up to 37 µM (Figure 3B,C). These experiments indicate that the N-terminal domain (NTD) and/or the C-terminal domain (CTD) are essential for IN inhibition by NSC34931.
Figure 3 Inhibition of the disintegration reaction by NSC34931. (A) Schematic representation of the disintegration reaction. […]

IN-DNA binding = target: T3, IN-DNA binding (Human immunodeficiency virus type 1 group M subtype B, UniProt P12497); experiment: IN-DNA binding by fluorescence anisotropy; set-up: species or system HIV-1
T3 construct: 250 nM of recombinant HIV-1 integrase; made in house; host or cells: E. coli RosettaII
Description: Although the CCD alone harbors all of the structural determinants of the active site to support the catalytic activity, the NTD and CTD have been implicated in both the quaternary architecture of the enzyme and DNA binding. Because outer domains (NTD and/or CTD) appeared important in the inhibition of IN by NSC34931, we wondered if stilbene disulfonic acid derivatives might compete with DNA binding. To test whether NSC34931 competed with substrate binding, we developed a plate-based assay with a fluorescent DNA substrate.
In addition, controls with DMSO (0 µM) or without IN (DNA only) were included. Data represent the mean of three independent experiments.
DNA binding was measured using a plate-based assay as previously described. […] Compounds or DMSO were incubated at room temperature for 5 min in the IN-activity buffer, in the absence or the presence of IN (400 nM). After addition of the DNA (10 nM), fluorescence anisotropy was measured every 30 s for 30 min using an Envision plate reader (Perkin Elmer, Waltham, MA, USA).

in vitro = details: human

In the case of `O=S(=O)(O)c1cc(/N=N/c2cc(S(=O)(=O)O)c3ccccc3c2O)ccc1/C=C/c1ccc(/N=N/c2cc(S(=O)(=O)O)c3ccccc3c2O)cc1S(=O)(=O)O` [NSC34931], the IC50 [1] is reported as 0.12 µM, the concentrations inhibiting disintegration (full-length IN) is reported as “above 4.1 µM” and the “fold lower concentration for IN-DNA binding inhibition than for inhibition of 3'-P and ST” value (IN-DNA binding) is reported as “about 10”. For the same compound, the “concentration giving full inhibition of IN-DNA binding” value (IN-DNA binding; fluorescence anisotropy) was 51 nM, the “effect on IN substrate (DNA) binding” value (IN-DNA binding; fluorescence anisotropy over 30 min) was “strongly and durably prevented IN-DNA binding” and the CC50 (in vitro) was 59 µM.
